The values below come from PMC10564737, “Structure-based design of a phosphotyrosine-masked covalent ligand targeting the E3 ligase SOCS2” (Nature Communications, 2023).

As a reminder, the Kd is the equilibrium constant for the complex coming apart.

Values joined by “and” are separate entries in the source; they are usually repeats but may differ in a detail not shown here. Identical values can stand only once.

Assay [1] deals with T1, SBC2 (Homo sapiens, UniProt O14508).
T1 construct: SOCS2 (amino acids 32–198); His6 (N, cleaved yes); made in house; host or cells: E. coli BL21(DE3)
The experiment in a line: Isothermal titration calorimetry (ITC), direct titration. The format is binding. Particulars: for Kd: ITC KD, direct ITC, 298 K. On the procedure: Experiments were performed with ITC200 instrument (Malvern) in 100 mM HEPES pH 7.5, 50 mM NaCl, 0.5 mM TCEP at 298 K. The ITC titration consisted of 0.4 μl initial injection (discarded during data analysis) followed by 19 of 2 μl injections at 120 s interval between injections. 1 mM of the ligands in 2–4% DMSO were titrated into 100 μM SBC2. […] Binding data was subtracted from a control titration where ligand was titrated into buffer, and fitted using a one-set-of-site binding model to obtain dissociation constant (Kd), binding enthalpy (ΔH), and stoichiometry (N) using MicroCal PEAQ-ITC Analysis Software1.1.0.1262 and MicroCal ITC-ORIGIN Analysis Software 7.0 (Malvern).
On the technique in general: ITC needs no label: the signal is the heat of the interaction.

The target in assay [2] is T1, SBC2. As to the kind of experiment: Surface plasmon resonance (SPR) with SBC2 immobilized on the chip. Type of assay: binding. The following applies: for Kd: Table 2, second-round library, n = 1. An excerpt: First, we decided to optimize the N-terminal region of 1 while maintaining the N-methylamide group at the C-terminus. To generate analogs rapidly, we employed a solid phase synthesis using methyl indole AM resin. After Fmoc deprotection, the resin was loaded with Fmoc-Tyr (PO(OBzl)2)-OH[29]. Subsequent coupling with various commercially available carboxylic acids and cleavage with TFA allowed the rapid synthesis of N-methylcarboxamide phosphotyrosines (Supplementary Fig. 1). We introduced different substituents at the N-terminus to cover a range of physicochemical properties (e.g. alicyclic, heterocyclic, aromatic with electron-withdrawing and electron-donating groups) to maximize potential interactions (see Table 1 for representative examples). Binding affinities of the synthesized compounds for SOCS2 were measured via two orthogonal biophysical binding assays: (1) surface plasmon resonance (SPR) with SBC2 immobilized on the chip (Supplementary Fig. 7); and (2) ^19F ligand-observed displacement NMR assays, providing two orthogonal biophysical measurements of dissociation constants (KD)[29],[31]. We found an excellent correlation between the KD values measured via the two techniques (Table 1). Para-substituted benzyl moieties yielded the greatest contributions to binding affinity and there were only slight differences between electron-withdrawing groups such as a methyl ester and electron-donating such as methoxy group.
SPR experiments were performed using a Biacore S200 instrument (GE Healthcare) in 20 mM HEPES pH 7.5, 150 mM NaCl, 1 mM TCEP, 0.005% Tween20, 2% DMSO buffer at 10 °C. Biotinylated SBC2 was immobilized onto a chip surface (the final surface density of biotinylated SBC2 was ~3000–4000 RU). AviTagged-SBC was biotinylated using BirA enzyme as per manufacturer’s protocol (Avidity). Compounds were serially diluted in the running buffer and injected individually: contact time 60 s, flow rate 30 μL/min, dissociation time 150 s, using a stabilization period of 30 s and syringe wash (50% DMSO) between injections. Data analysis was carried out using Biacore Evaluation Software (GE Healthcare). All data were double-referenced for reference surface and blank injection. The processed sensograms were fit to a steady-state affinity using a 1:1 binding model for KD estimation.
In general terms: Surface plasmon resonance follows binding to a sensor surface in real time, without labels.

Assay [3] deals with T2, HiBiT-SOCS2 fusion in HeLa cells (Homo sapiens, UniProt O14508).
T2 construct: encoding SOCS2 (32–198) in pBiT3.1-N expression vector; expressed in transfected cells; host or cells: HeLa
The experiment in a line: Split-NanoLuc CETSA, live-cell mode. Type of assay: cell-based. Set-up: Produrg CETSA screening, raw signal: reference not given here. Particulars: for Produrg CETSA screening, raw signal: 50uM 20hrs. On the procedure:
One of the challenges with small-molecule binders displaying on-target activity with recombinant proteins, is to translate their utility to a cellular context. […] One of the advantages of CETSA is that target engagement can be monitored without the need for the development of a cell-permeable tracer molecule.
We utilized CETSA in a live-cell mode to evaluate the efficacy and rank the different prodrugs. We treated live HeLa cells with 50 μM compound (prodrugs) for 20 h and monitored Tagg shift as a proxy for the combo of prodrug permeability and unmasking (Fig. 4d). […] The observation could be because the POM group unmasking requires only esterase unlike the reliance of compounds 21–23 on esterase and phosphoramidase for unmasking an aryloxy phosphoramidate group.
N-terminal HiBiT-SOCS2 fusion was generated by encoding SOCS2 (32–198) in pBiT3.1-N expression vector (Promega). The transfection and target engagement assay were performed by modifying a NanoLuc target engagement protocol (Promega) with some small modifications. Briefly, HiBiT-SOCS2 fusion construct was transfected into HeLa cells using FuGENE HD (Promega) according to the manufacturer’s protocol. HiBiT-SOCS2 fusion construct was diluted into Transfection Carrier DNA (Promega) at a mass ratio of 1:100 or 1:10 for permeabilised and live-cell CETSA respectively. FuGENE HD was added at a ratio of 1:3 (μg DNA: μL FuGENE HD). 1 part (vol) of FuGENE HD complexes thus formed were combined with 20 parts (vol) of HeLa cells suspended at a density of 2 × 10^5 cells/mL, followed by incubation in a humidified, 37 °C + 5% CO2 incubator. After 20 h of incubation HeLa cells were detached and resuspended at a density of 2.5 × 10^5 cells/mL in Opti-MEM media without serum or phenol red but supplemented with protease inhibitor cocktail (Roche). Compounds stocks were added to cell suspension to maintain a final DMSO concentration of 1%. For the permeabilised assay format, 96-well PCR plates (Thermo) were pre-treated with digitonin to have a final well concentration of 50 μg/ml. 50 μl Opti-MEM cell suspension was then aliquoted to each well of the 96-well plate. The plates are then covered with microporous tape sheet (Qiagen) prior to incubation in a humidified, 37 °C + 5% CO2 incubator. Post-incubation we heat the PCR plates in 16-point temperature (split across two runs) curve spanning degrees 40-72 °C temperature span (CFX96 Touch Real-Time PCR Detection System, BioRad). The thermal cycler block was allowed to rise to the designated temperatures prior to placement of the PCR plates into the heating block and heat treatment for 3 min. After incubating the plates at room temperature for over 3 min, 50 μl of the Nano-Glo HiBiT Lytic mix (Promega) was added to each well. Samples were mixed by pipetting and placing the plate on an orbital shaker (600 rpm) for 5 min. 20 μl of the samples (in triplicates) were transferred to a AlphaPlate-384 plate (Perkin Elmer). Luminescence was recorded with GloMax Discover Microplate Reader (Promega). To generate apparent Tagg curves, the data is first converted to percent stabilized by relating the observed luminescence to the luminescence of the lowest temperature (40 °C) for that given sample. Data are then fitted to obtain apparent Tagg values using the Boltzmann Sigmoid equation using Graphpad Prism 9.

T2 sequence (O14508 32-198): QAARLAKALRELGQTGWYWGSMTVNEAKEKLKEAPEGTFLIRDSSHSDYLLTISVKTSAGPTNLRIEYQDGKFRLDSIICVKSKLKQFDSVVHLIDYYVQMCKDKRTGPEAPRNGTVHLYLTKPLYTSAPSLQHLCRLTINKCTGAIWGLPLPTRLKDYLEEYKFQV
T2 sequence (Q15370 whole entry, further chain, the tested form may be a part): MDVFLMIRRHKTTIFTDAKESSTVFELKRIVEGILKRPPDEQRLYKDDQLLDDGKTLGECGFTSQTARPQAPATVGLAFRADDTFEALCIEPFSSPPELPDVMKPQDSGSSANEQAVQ
T2 sequence (Q15369 whole entry, further chain, the tested form may be a part): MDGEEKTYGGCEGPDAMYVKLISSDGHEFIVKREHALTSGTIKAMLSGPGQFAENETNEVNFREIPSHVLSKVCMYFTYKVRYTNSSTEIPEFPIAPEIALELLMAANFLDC
T1 sequence (O14508 32-198): as the sequence (O14508 32-198) above
T1 sequence (Q15370 1-104 partner limits assumed): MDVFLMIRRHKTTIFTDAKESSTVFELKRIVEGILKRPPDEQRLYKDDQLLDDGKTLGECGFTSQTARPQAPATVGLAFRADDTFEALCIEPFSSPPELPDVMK
T1 sequence (Q15369 17-112 partner limits assumed): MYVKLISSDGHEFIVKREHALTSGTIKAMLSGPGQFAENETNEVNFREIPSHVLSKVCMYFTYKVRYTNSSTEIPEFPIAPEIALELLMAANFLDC

Turning to `Cc1cccc(CNC(=O)[C@H](Cc2ccc(OP(=O)(O)O)cc2)NC(=O)Cc2ccc(F)cc2)c1` [Compound 10, (S)-4-(2-(2-(4-fluorophenyl)acetamido)-3-((3-methylbenzyl)amino)-3-oxopropyl)phenyl phosphate], at SBC2 [1], the “ITC ΔG” value is -8.12 kcal/mol, the “ITC −TΔS” value is -2.31 kcal/mol and the Kd stood at 1.1 µM. Also, the “improvement of binding affinity compared to 5” value on SBC2 [2] (SPR) is reported as 10 fold. Also, the Kd at SBC2 [2] is 3.7 µM.
Take `C=CCc1cccc(CNC(=O)[C@H](Cc2ccc(OP(=O)(O)O)cc2)NC(=O)Cc2ccc(F)cc2)c1` [Compound 14, (S)-4-(3-((3-allylbenzyl)amino)-2-(2-(4-fluorophenyl)acetamido)-3-oxopropyl)phenyl phosphate]: on SBC2 [1], the “ITC ΔG” value is -8.61 kcal/mol; the “ITC ΔH” value was -6.31 kcal/mol; the “ITC −TΔS” value was -2.26 kcal/mol; the affinity, expressed as Kd, was 0.48 µM. Besides, the Kd on SBC2 [2] was determined as 2.4 µM.
Regarding `COC(=O)[C@H](C)NP(=O)(Oc1ccc(C[C@H](NC(=O)Cc2ccc(F)cc2)C(=O)NCc2cccc(NC(=O)CCl)c2)cc1)Oc1cccc2ccccc12` (stereo partly shown) [Compound 21], the “Produrg CETSA screening, raw signal” value is 91803 and 91466 and 172287 in assay [3] (n=1, temperature point 4 of 16, temperature not given); 75745 and 107243 and 102225 in assay [3] (n=1, temperature point 5 of 16, temperature not given); 90752 and 132144 and 123125 in assay [3] (n=1, temperature point 6 of 16, temperature not given); 129001 and 137550 and 230259 in assay [3] (n=1, temperature point 7 of 16, temperature not given); 138976 and 169925 and 177765 in assay [3] (n=1, temperature point 8 of 16, temperature not given); 198178 and 192764 and 223087 in assay [3] (n=1, temperature point 9 of 16, temperature not given). In addition, the “Produrg CETSA screening, raw signal” value in assay [3] (n=1, temperature point 10 of 16, temperature not given) is 187698 and 251675 and 298741; in assay [3] (n=1, temperature point 11 of 16, temperature not given), 267213 and 290800 and 310548; in assay [3] (n=1, temperature point 12 of 16, temperature not given), 360938 and 373247 and 422856; in assay [3] (n=1, temperature point 13 of 16, temperature not given), 434129 and 461596 and 480477; in assay [3] (n=1, temperature point 14 of 16, temperature not given), 437890 and 471533 and 565224; in assay [3] (n=1, temperature point 15 of 16, temperature not given), 465739 and 467737 and 561619. For the same compound, the “Produrg CETSA screening, raw signal” value in assay [3] (n=1, temperature point 16 of 16, temperature not given) was 441792 and 461249 and 531619; in assay [3] (n=2, temperature point 1 of 16, temperature not given) it was 100426 and 115227 and 145975; in assay [3] (n=2, temperature point 2 of 16, temperature not given) it was 100401 and 85507 and 140649; in assay [3] (n=2, temperature point 3 of 16, temperature not given) it was 123706 and 103110 and 202648; in assay [3] (n=2, temperature point 4 of 16, temperature not given) it was 103160 and 69960 and 120366; in assay [3] (n=2, temperature point 5 of 16, temperature not given), 75996 and 86411 and 132074. For the same compound, the “Produrg CETSA screening, raw signal” value is 123683 and 120963 and 144901 in assay [3] (n=2, temperature point 6 of 16, temperature not given); 143611 and 177701 and 227556 in assay [3] (n=2, temperature point 7 of 16, temperature not given); 172997 and 193471 and 214613 in assay [3] (n=2, temperature point 8 of 16, temperature not given); 198669 and 236779 and 246686 in assay [3] (n=2, temperature point 9 of 16, temperature not given); 209139 and 261273 and 295556 in assay [3] (n=2, temperature point 10 of 16, temperature not given); 246514 and 287579 and 323688 in assay [3] (n=2, temperature point 11 of 16, temperature not given). The “Produrg CETSA screening, raw signal” value in assay [3] (n=2, temperature point 12 of 16, temperature not given) was 393463 and 428191 and 449673; in assay [3] (n=2, temperature point 13 of 16, temperature not given), 441856 and 476194 and 509704; in assay [3] (n=2, temperature point 14 of 16, temperature not given) it was 497788 and 532165 and 547547; in assay [3] (n=2, temperature point 15 of 16, temperature not given) it was 523691 and 513819 and 551344; in assay [3] (n=2, temperature point 16 of 16, temperature not given), 478273 and 472552 and 530261; in assay [3] (n=3, Temp, 0C 62.3), 20167. In addition, the “Produrg CETSA screening, raw signal” value in assay [3] (n=3, Temp, 0C 66.1) was 12666 and 19260 and 24872; in assay [3] (n=3, Temp, 0C 69.3), 18005 and 19840 and 24313; in assay [3] (n=3, Temp, 0C 71.1) it was 19926 and 19187 and 22421; in assay [3] (n=3, Temp, 0C 72) it was 14765 and 18884 and 20941. In assay [3] (Prodrug screen CETSA, live HeLa cells, 50 μM, 20 h, Mean n = 3), the ΔT came to 0.60 oC. In assay [3] (Prodrug screen CETSA, single replicates), the “ΔT, individual replicates n1-n3” value was 1.03 oC and -0.02 oC and 0.80 oC.
